Measurements reported in the NIST ThermoML archive (doi:10.1016/j.jct.2009.11.014).

Conditions: Liquid; for viscosity: Stony Brook Scientific falling needle HPHTV-100 viscometer; for mass density: vibrating tube

CCn1cc[n+](C)c1.F[B-](F)(F)F [1-ethyl-3-methylimidazolium tetrafluoroborate]
Conditions	mass density [kg/m3]	viscosity [mPa·s]
282.55 K, 100 kPa	–	67.8
282.55 K, 700 kPa	–	69.1
282.55 K, 1700 kPa	–	70.1
282.55 K, 2700 kPa	–	71.6
282.55 K, 4400 kPa	–	72.9
282.55 K, 6100 kPa	–	74.3
282.55 K, 8200 kPa	–	75.5
282.55 K, 10300 kPa	–	76.1
282.55 K, 12900 kPa	–	77.9
282.55 K, 14100 kPa	–	79.3
283.15 K, 100 kPa	1297.04	–
283.15 K, 2000 kPa	1297.83	–
283.15 K, 4000 kPa	1298.68	–
283.15 K, 6000 kPa	1299.52	–
283.15 K, 8000 kPa	1300.36	–
283.15 K, 10000 kPa	1301.22	–
283.15 K, 12000 kPa	1302.03	–
283.15 K, 14000 kPa	1302.82	–
283.15 K, 20000 kPa	1305.3	–
283.15 K, 30000 kPa	1309.33	–
283.15 K, 40000 kPa	1313.27	–
283.15 K, 50000 kPa	1317.06	–
283.15 K, 60000 kPa	1320.84	–
288.15 K, 100 kPa	1293.21	–
288.15 K, 2000 kPa	1294.02	–
288.15 K, 4000 kPa	1294.88	–
288.15 K, 6000 kPa	1295.72	–
288.15 K, 8000 kPa	1296.59	–
288.15 K, 10000 kPa	1297.45	–
288.15 K, 12000 kPa	1298.29	–
288.15 K, 14000 kPa	1299.08	–
288.15 K, 20000 kPa	1301.58	–
288.15 K, 30000 kPa	1305.62	–
288.15 K, 40000 kPa	1309.54	–
288.15 K, 50000 kPa	1313.39	–
288.15 K, 60000 kPa	1317.17	–
293.15 K, 100 kPa	1289.36	–
293.15 K, 2000 kPa	1290.17	–
293.15 K, 4000 kPa	1291.05	–
293.15 K, 6000 kPa	1291.91	–
293.15 K, 8000 kPa	1292.79	–
293.15 K, 10000 kPa	1293.63	–
293.15 K, 12000 kPa	1294.48	–
293.15 K, 14000 kPa	1295.29	–
293.15 K, 20000 kPa	1297.8	–
293.15 K, 30000 kPa	1301.86	–
293.15 K, 40000 kPa	1305.84	–
293.15 K, 50000 kPa	1309.69	–
293.15 K, 60000 kPa	1313.49	–
293.75 K, 6300 kPa	–	46.1
293.75 K, 8200 kPa	–	47.5
293.75 K, 10100 kPa	–	48.4
293.75 K, 12400 kPa	–	49.3
293.85 K, 100 kPa	–	43.4
293.85 K, 700 kPa	–	43.7
293.85 K, 1700 kPa	–	44.1
293.85 K, 2700 kPa	–	44.4
293.85 K, 4200 kPa	–	44.9
293.85 K, 14500 kPa	–	49.7
298.15 K, 100 kPa	1285.51	–
298.15 K, 2000 kPa	1286.33	–
298.15 K, 4000 kPa	1287.22	–
298.15 K, 6000 kPa	1288.13	–
298.15 K, 8000 kPa	1289.02	–
298.15 K, 10000 kPa	1289.83	–
298.15 K, 12000 kPa	1290.7	–
298.15 K, 14000 kPa	1291.53	–
298.15 K, 20000 kPa	1294.05	–
298.15 K, 30000 kPa	1298.17	–
298.15 K, 40000 kPa	1302.18	–
298.15 K, 50000 kPa	1306.09	–
298.15 K, 60000 kPa	1309.95	–
303.15 K, 100 kPa	1281.74	–
303.15 K, 2000 kPa	1282.57	–
303.15 K, 4000 kPa	1283.44	–
303.15 K, 6000 kPa	1284.35	–
303.15 K, 8000 kPa	1285.26	–
303.15 K, 10000 kPa	1286.08	–
303.15 K, 12000 kPa	1287	–
303.15 K, 14000 kPa	1287.82	–
303.15 K, 20000 kPa	1290.4	–
303.15 K, 30000 kPa	1294.54	–
303.15 K, 40000 kPa	1298.58	–
303.15 K, 50000 kPa	1302.56	–
303.15 K, 60000 kPa	1306.43	–
303.95 K, 10300 kPa	–	34.2
304.05 K, 120 kPa	–	30.9
304.05 K, 680 kPa	–	31.1
304.05 K, 1730 kPa	–	31.2
304.05 K, 2710 kPa	–	31.4
304.05 K, 4300 kPa	–	32.2
304.05 K, 6340 kPa	–	32.6
304.05 K, 8250 kPa	–	33.1
304.05 K, 12210 kPa	–	34.3
304.05 K, 14300 kPa	–	35.2
308.15 K, 100 kPa	1277.93	–
308.15 K, 2000 kPa	1278.81	–
308.15 K, 4000 kPa	1279.69	–
308.15 K, 6000 kPa	1280.58	–
308.15 K, 8000 kPa	1281.46	–
308.15 K, 10000 kPa	1282.35	–
308.15 K, 12000 kPa	1283.22	–
308.15 K, 14000 kPa	1284.11	–
308.15 K, 20000 kPa	1286.68	–
308.15 K, 30000 kPa	1290.85	–
308.15 K, 40000 kPa	1294.96	–
308.15 K, 50000 kPa	1298.92	–
308.15 K, 60000 kPa	1302.82	–
313.15 K, 100 kPa	1274.17	–
313.15 K, 2000 kPa	1275.04	–
313.15 K, 4000 kPa	1275.93	–
313.15 K, 6000 kPa	1276.8	–
313.15 K, 8000 kPa	1277.73	–
313.15 K, 10000 kPa	1278.61	–
313.15 K, 12000 kPa	1279.51	–
313.15 K, 14000 kPa	1280.39	–
313.15 K, 20000 kPa	1283.04	–
313.15 K, 30000 kPa	1287.29	–
313.15 K, 40000 kPa	1291.42	–
313.15 K, 50000 kPa	1295.43	–
313.15 K, 60000 kPa	1299.37	–
313.65 K, 10170 kPa	–	25.7
313.65 K, 12290 kPa	–	26
313.65 K, 14100 kPa	–	26.2
313.75 K, 1760 kPa	–	23.8
313.75 K, 2730 kPa	–	24.1
313.75 K, 4350 kPa	–	24.5
313.75 K, 6270 kPa	–	24.9
313.75 K, 8230 kPa	–	25.1
313.85 K, 100 kPa	–	23.3
313.85 K, 700 kPa	–	23.4
313.85 K, 10300 kPa	–	25.6
318.15 K, 100 kPa	1270.39	–
318.15 K, 2000 kPa	1271.3	–
318.15 K, 4000 kPa	1272.25	–
318.15 K, 6000 kPa	1273.14	–
318.15 K, 8000 kPa	1274.05	–
318.15 K, 10000 kPa	1274.96	–
318.15 K, 12000 kPa	1275.87	–
318.15 K, 14000 kPa	1276.72	–
318.15 K, 20000 kPa	1279.36	–
318.15 K, 30000 kPa	1283.7	–
318.15 K, 40000 kPa	1287.8	–
318.15 K, 50000 kPa	1291.92	–
318.15 K, 60000 kPa	1295.92	–
323.15 K, 100 kPa	1266.69	–
323.15 K, 2000 kPa	1267.58	–
323.15 K, 4000 kPa	1268.52	–
323.15 K, 6000 kPa	1269.45	–
323.15 K, 8000 kPa	1270.37	–
323.15 K, 10000 kPa	1271.28	–
323.15 K, 12000 kPa	1272.19	–
323.15 K, 14000 kPa	1273.08	–
323.15 K, 20000 kPa	1275.76	–
323.15 K, 30000 kPa	1280.1	–
323.15 K, 40000 kPa	1284.32	–
323.15 K, 50000 kPa	1288.41	–
323.15 K, 60000 kPa	1292.42	–
323.65 K, 100 kPa	–	18.4
323.65 K, 700 kPa	–	18.6
323.65 K, 1700 kPa	–	18.7
323.75 K, 1200 kPa	–	18.5
323.75 K, 2300 kPa	–	18.7
323.75 K, 4200 kPa	–	18.9
323.75 K, 4500 kPa	–	18.9
323.75 K, 6100 kPa	–	19
323.75 K, 6600 kPa	–	19.4
323.75 K, 8200 kPa	–	19.3
323.75 K, 10200 kPa	–	19.7
323.75 K, 12400 kPa	–	19.9
323.75 K, 14300 kPa	–	20.1
